Data set [1] deals with sexual behaviour of normal male rats. Briefly: Sexual behaviour of normal (sexually vigorous) male rats. The format is in vivo, rat. Conditions: Compound (1) 15 mg/kg or Fluoxetine 20 mg/kg i.p. 1 h before test. The protocol: The potentially stimulatory effect of Compound (1) on male sexual behaviour has been tested on sexually vigorous rats. Sprague Dawley male rats (Charles River, UK) were kept, 4 rats per cage, in a reversed lighting regime (12:12 hours, lights off at 5.00 h), with free access to food and water. The rats were pre-selected by being presented with a receptive female at 4 days intervals, i.e. every third day (having 2 clear days between presentations) until completing 6-7 […] of baseline determination. The animals showing consistently vigorous behaviour (ejaculatory latencies <300s) were chosen for further experiments (n—24). Animals were randomised into three groups. All animals received all three treatments following a latin-square design. Treatments were administered once a week, with a baseline test in between treatments (4 days intervals between baseline and test day). Treatments were Compound (1) (15 mg/kg, dissolved in 50% 2-hydroxypropyl-β-cyclodextrin in saline), vehicle, or Fluoxetine (20 mg/kg dissolved in 100% DMSO). All treatments were administered i.p. in a 1 ml/kg volume, 1 h before tests.
For all the sexual behaviour tests, the males were placed in an observation arena (50-60 cm diameter), starting 5 hours into the dark cycle and observed under red illumination. Three to 4 minutes after placing the male in the arena, a receptive female (ovariectomised, bearing a 7 mm Silastic implant of oestradiol benzoate) was introduced to the arena and the following parameters noted: Mount Latency: time (in seconds) taken between introduction of female and first mount. A maximum time of 15 minutes (900 seconds) was allowed, and the test terminated if no mounts were recorded within that time (FIG. 11), Intromission Latency: time (in seconds) taken between introduction of female and first intromission (FIG. 12), Number of Mounts: to reach ejaculation. When ejaculation was not reached, the number of mounts was not analyzed, Number of Intromissions: to reach ejaculation. When ejaculation was not reached, the number of intromissions was not analyzed (FIG. 13 is number of mounts+intromissions), Ejaculation Latency: time (in seconds) taken from first intromission to ejaculation. A maximum time of 30 minutes (1800 seconds) was given, and the test terminated if ejaculation was not achieved in that time (FIG. 14), and Refractory Period: time (in seconds) taken from ejaculation to the first mount of the next series of sexual activity. In those animals reaching ejaculation the test was terminated at the end of the refractory period, as indicated by the first mount of the next sexual cycle (FIG. 15).
A one-way ANOVA followed by Dunnett's t test was used to compare treated vs vehicle groups each day of testing, for all the sexual behaviour parameters. (*P<0.05, **P<0.01; n=15-16).

Data set [2] deals with female rat sexual proceptivity. In words: Female rat sexual proceptivity test (time investigating male vs female stimulus). The format is in vivo. Here is the method: Ovariectomised adult female Sprague Dawley rats (180-200 g, from Charles River) were housed in groups of 6 in a reversed lighting system of 12 h light:dark (lights off 7.00-19.00 h). Two weeks after ovariectomy they were used for sexual activity tests. The experiments started at least 5 h into the dark period.
Tests were carried out in a circular arena of 90 cm diameter, surrounded by a 30 cm high wall. Two small cages with wire-mesh front (15×15 cm) are fixed into the wall such that the front of the cage is <> with the wall and the 2 cages are opposite each other. They contained two stimuli animals: an intact sexually experienced male and a receptive female (ovariectomised, primed with 5 μg oestradiol benzoate dissolved in corn oil and injected subcutaneously 48 hours before the test and with 0.5 mg of progesterone four hours before the test). Sexually naive test and control animals were used. Forty eight hours before the tests, both the test and control animals were primed with 5 μg oestradiol benzoate. For animals used as positive controls, progesterone (0.5 mg/0.1 ml) was dissolved in corn oil and administered subcutaneously (s.c.), 4 h before the test. Test and control animals were introduced one at a time for 10 minute periods into the arena. During the 10 min test, the time that the test or positive control animal spent investigating each stimulus animal was noted. The arena was thoroughly cleaned between animals. The position of the male/female stimuli boxes was randomised between animals, in order to avoid place preference. The difference in the percentage of time spent investigating the male minus the female stimuli was calculated, out of the total time spent investigating stimuli animals.
Compound (1) was dissolved in 100% β-cyclodextrin and then diluted with saline to a final solution of 50% 2-hydroxypropyl-β-cyclodextrin. It was administered intraperitoneally (i.p.) at doses of 3 and 10 mg/kg, in a dosing volume of 1 ml/kg, 1 h before tests. Progesterone (0.5 mg/0.1 ml) was dissolved in corn oil and administered subcutaneously (s.c.), 4 h before test, as a positive control.
Ovariectomised adult female Sprague Dawley rats (180-200 g) were housed in groups of 5 in a reversed lighting system of 12 h light:dark (lights off 5.00-17.00 h). They were used for the experiments at least two weeks after ovariectomy. Forty eight hours before tests, the animals were primed with oestradiol benzoate (5 μg/[…] in corn oil, s.c.). On day 1, progesterone (0.5 mg/0.1 ml, in corn oil, s.c.) was administered to one of the groups 4 h before tests, as a positive control. Compound (1) (15 mg/kg, i.p.) was administered in 50% 2-hydroxypropyl-β-cyclodextrin, 1 h before tests. The test lasted 10 minutes and was carried out as described before. The difference in the percentage of time spent investigating the male minus the female stimuli was calculated, out of the total time spent investigating stimuli animals. Animals were submitted to a test on day 1 and on day 15. From day 2 to 14 the Compound (1) group received a daily injection of the compound (15 mg/kg, i.p.), while both the vehicle and the progesterone groups received an injection of vehicle. On day 15 the test took place again, as described for day 1.
Ovariectomised female rats (Sprague Dawley, obtained from Charles River, UK) were stereotaxically implanted (coordinates 0.89 mm behind Bregma, 1.3 mm lateral and 2.5 mm vertical) with stainless steel cannulae (6 mm long, O.D. 0.75 mm), held in place with dental cement. Animals were housed in groups of three and returned to a reversed lighting system of 12 h light:dark (lights off 5.00-17.00 h). Correct placement of the cannulae was assessed post-mortem. Rats were used for tests two weeks after ovariectomy (one week after cannulation). The experiments started at least 5 h into the dark period. […]

The structures appear in SMILES notation. Entries after “also recorded” stand apart in the source; their conditions may differ.

Take `COc1ccc(C2(CNC(=O)[C@](C)(Cc3c[nH]c4ccccc34)NC(=O)Nc3ccc([N+](=O)[O-])cc3)CCCCC2)nc1` [Compound (1), (S) 3-(1H-Indol-3-yl)-N-[1-(5-methoxy-pyridin-2-yl)-cyclohexyl-methyl]-2-methyl-2-[3-(4-nitro-phenyl)-ureido]-propionamide]: the “Mount Latency” value in data set [1] (vs vehicle (FIG. 11)) is “no effect on any of the parameters studied”. For the same compound, the “Intromission Latency” value in data set [1] (vs vehicle (FIG. 12)) is on record as “no effect on any of the parameters studied”. Besides, the “number of mounts and intromissions required to achieve ejaculation” value in data set [1] (vs vehicle (FIG. 13)) is “no effect on any of the parameters studied”. Also, the “Ejaculation Latency” value in data set [1] (vs vehicle (FIG. 14)) is reported as “no effect on any of the parameters studied”. The “Refractory Period” value in data set [1] (vs vehicle (FIG. 15)) is given as “no effect on any of the parameters studied”. Besides, the “body weight, general behaviour, tolerability on repeated administration” value in data set [2] (15 mg/kg i.p. daily for 15 days, female rats) is “no changes in body weight or general behaviour; also recorded: well tolerated”. Besides, in data set [2] (Compound (1) 15 mg/kg i.p. 1 h before test, progesterone 0.5 mg s.c. 4 h before test (FIG. 3)), the “proceptivity on day 1 vs vehicle” value is given as “stimulatory effect on proceptivity”. Besides, the “percentage of time spent investigating the male stimulus” value in data set [2] (i.c.v., 3-30 μg/rat, 10 min before test (FIG. 4)) is on record as “dose-dependently (3-30 μg/rat) increased the percentage of time spent investigating the male stimulus”; in data set [2] (i.p., 3 and 10 mg/kg, 1 h before test, vs vehicle (FIG. 1)), “dose-dependently (3 mg/kg-10 mg/kg) increased the percentage of time spent investigating the male stimulus”.

The record behind these values is patent US20020169101A1, “Treatment of sexual dysfunction” (priority 1999, published 2002).
